“And” between values parts separate entries of the source, which are not always exact repeats. Identical values can stand only once. Like-named read-outs stand apart in the source and are kept apart here.
What was measured:
[1] = male, Sprague-Dawley, rat, in vivo; for CL (total clearance): iv
SARS-CoV-2 3CL protease = SARS-CoV-2 3CL protease (Severe acute respiratory syndrome coronavirus 2, UniProt P0DTD1); assay: biochemical; assay type: biochemical; conditions: for IC50: read-out: SARS-CoV-2 3CLpro IC50
cathepsin L = cathepsin L (Homo sapiens, UniProt P07711); assay: Human protease enzyme assay: cathepsin L; assay type: biochemical
SARS-CoV-2 [2] = assay: microbe, parasite or virus in culture; assay type: cell-based
cathepsin D [3] = target: T1, cathepsin D (Homo sapiens, UniProt P07339); conditions: at 100 μM
in vivo [4] = conditions: male, beagle, dog
in vitro = conditions: African green monkey
cathepsin D [5] = target: T1, cathepsin D; assay: biochemical; conditions: read-out: Inhibitory activity
HCoV-229E = assay: microbe, parasite or virus in culture; assay type: cell-based; conditions: Human coronavirus 229E
[6] = mouse, in vivo
cathepsin G = target: T2, cathepsin G (Homo sapiens, UniProt P08311)
T2 sequence (P08311 21-255): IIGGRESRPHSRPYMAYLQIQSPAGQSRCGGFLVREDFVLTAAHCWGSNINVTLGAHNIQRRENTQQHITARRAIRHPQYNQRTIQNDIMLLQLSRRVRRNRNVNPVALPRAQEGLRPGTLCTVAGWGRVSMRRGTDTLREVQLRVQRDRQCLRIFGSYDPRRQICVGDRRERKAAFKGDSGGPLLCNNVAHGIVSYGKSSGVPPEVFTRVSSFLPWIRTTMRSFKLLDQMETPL

Rat PK study = conditions: oral 1 μmol/5 mL/kg, n = 2, nonfasted, listed as S-217622
thrombin = thrombin (Homo sapiens, UniProt P00734); conditions: at 100 μM
[7] = system: SARS-CoV-2 Gamma strain (hCoV-19/Japan/TY7-501/2021); assay type: in vivo, BALB/cAJcl mice
[8] = target: T3, human ether-a-go-go-related gene channel (Homo sapiens, UniProt Q12809); assay: Human ether-a-go-go-related gene inhibition assay (patch clamp, CHO cells); assay type: cell-based; conditions: in vitro
T3 construct: expressed in transfected cells; host or cells: Chinese hamster ovary (CHO) cells

HIV-1 protease = HIV-1 protease (Human immunodeficiency virus type 1 group M subtype B, UniProt P04585); assay: Enzymatic inhibitory activity against HIV-1 protease; assay type: biochemical
caspase-2 = target: T4, caspase-2 (Homo sapiens, UniProt P42575)
T4 sequence (P42575 1-452): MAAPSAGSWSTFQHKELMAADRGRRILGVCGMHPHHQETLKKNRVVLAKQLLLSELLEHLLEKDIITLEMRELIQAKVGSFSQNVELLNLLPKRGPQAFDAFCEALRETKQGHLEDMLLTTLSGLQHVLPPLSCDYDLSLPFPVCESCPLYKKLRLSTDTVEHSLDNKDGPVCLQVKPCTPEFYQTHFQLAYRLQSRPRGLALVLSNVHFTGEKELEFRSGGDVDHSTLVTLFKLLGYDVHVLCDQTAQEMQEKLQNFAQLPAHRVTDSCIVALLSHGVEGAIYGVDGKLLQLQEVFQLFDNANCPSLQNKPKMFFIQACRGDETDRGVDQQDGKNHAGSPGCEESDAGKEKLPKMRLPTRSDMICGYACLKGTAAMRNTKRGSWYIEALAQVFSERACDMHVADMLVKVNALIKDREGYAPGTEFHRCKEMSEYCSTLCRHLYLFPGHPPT

MERS-CoV = assay: microbe, parasite or virus in culture; assay type: cell-based; conditions: Middle East respiratory syndrome-related coronavirus, VeroE6/TMPRSS2, read-out: EC50 against MERS-CoV
VeroE6/TMPRSS2 cells = conditions: African green monkey
in vivo [9] = conditions: female, cynomolgus monkey
Dog PK study = conditions: intravenous 0.1 mg/0.2 mL/kg, n = 2, nonfasted
SARS-CoV-2 [10] = assay: Cellular antiviral activity in the presence of mouse serum; assay type: cell-based; conditions: Severe acute respiratory syndrome coronavirus 2; extrapolated to 100% mouse serum; read-out: protein-adjusted-EC50 (PA-EC50)
chymotrypsin = assay: Human protease enzyme assay: chymotrypsin; assay type: biochemical
Monkey PK study = conditions: intravenous 0.1 mg/0.2 mL/kg, n = 2, nonfasted
HCoV-OC43 = assay: microbe, parasite or virus in culture; assay type: cell-based
SARS-CoV = assay: microbe, parasite or virus in culture; assay type: cell-based; conditions: Severe acute respiratory syndrome coronavirus, VeroE6/TMPRSS2, read-out: EC50 against SARS-CoV
[11] = both, human, microsomes, 0.5 h, 0.5 μM, pH 7.4
[12] = male, rat, microsomes, 0.5 h, 0.5 μM, pH 7.4
[13] = Severe acute respiratory syndrome coronavirus 2, VeroE6/TMPRSS2, strain hCoV-19/Japan/QHN001/2020 (Alpha, B.1.1.7), mean, read-out: EC50 on cytopathic effects
[14] = Severe acute respiratory syndrome coronavirus 2, VeroE6/TMPRSS2, strain hCoV-19/Japan/QHN002/2020 (Alpha, B.1.1.7), mean, read-out: EC50 on cytopathic effects
[15] = Severe acute respiratory syndrome coronavirus 2, VeroE6/TMPRSS2, strain hCoV-19/Japan/QK002/2020 (Alpha, B.1.1.7), mean, read-out: EC50 on cytopathic effects
[16] = Severe acute respiratory syndrome coronavirus 2, VeroE6/TMPRSS2, strain hCoV-19/Japan/TY7-501/2021 (Gamma, P.1), mean, read-out: EC50 on cytopathic effects
[17] = Severe acute respiratory syndrome coronavirus 2, VeroE6/TMPRSS2, strain hCoV-19/Japan/TY7-503/2021 (Gamma, P.1), mean, read-out: EC50 on cytopathic effects
[18] = Severe acute respiratory syndrome coronavirus 2, VeroE6/TMPRSS2, strain hCoV-19/Japan/TY8-612/2021 (Beta, B.1.351), mean, read-out: EC50 on cytopathic effects
[19] = Severe acute respiratory syndrome coronavirus 2, VeroE6/TMPRSS2, strain hCoV-19/Japan/TY11-927-P1/2021 (Delta, B.1.617.2), mean, read-out: EC50 on cytopathic effects
[20] = Severe acute respiratory syndrome coronavirus 2, VeroE6/TMPRSS2, strain hCoV-19/Japan/TY38-873/2021 (Omicron, B.1.1.529), mean, read-out: EC50 on cytopathic effects

Sequence of cathepsin L (P07711 114-333): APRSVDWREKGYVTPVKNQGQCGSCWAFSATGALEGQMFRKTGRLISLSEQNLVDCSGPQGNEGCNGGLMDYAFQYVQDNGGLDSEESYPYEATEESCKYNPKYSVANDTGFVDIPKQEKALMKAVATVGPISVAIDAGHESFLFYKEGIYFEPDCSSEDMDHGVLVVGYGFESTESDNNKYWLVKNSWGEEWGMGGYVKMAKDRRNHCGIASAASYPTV
T1 sequence (P07339 65-412): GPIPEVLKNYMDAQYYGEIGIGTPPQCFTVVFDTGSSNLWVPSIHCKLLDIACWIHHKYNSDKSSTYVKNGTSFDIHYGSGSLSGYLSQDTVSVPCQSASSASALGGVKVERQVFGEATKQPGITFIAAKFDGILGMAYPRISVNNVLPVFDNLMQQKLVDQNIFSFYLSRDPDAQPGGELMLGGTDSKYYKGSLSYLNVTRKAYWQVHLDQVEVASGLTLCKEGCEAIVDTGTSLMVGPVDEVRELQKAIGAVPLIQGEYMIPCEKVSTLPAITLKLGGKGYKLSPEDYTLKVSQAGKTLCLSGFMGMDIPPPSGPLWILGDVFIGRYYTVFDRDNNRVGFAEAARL
T3 sequence (Q12809 whole entry): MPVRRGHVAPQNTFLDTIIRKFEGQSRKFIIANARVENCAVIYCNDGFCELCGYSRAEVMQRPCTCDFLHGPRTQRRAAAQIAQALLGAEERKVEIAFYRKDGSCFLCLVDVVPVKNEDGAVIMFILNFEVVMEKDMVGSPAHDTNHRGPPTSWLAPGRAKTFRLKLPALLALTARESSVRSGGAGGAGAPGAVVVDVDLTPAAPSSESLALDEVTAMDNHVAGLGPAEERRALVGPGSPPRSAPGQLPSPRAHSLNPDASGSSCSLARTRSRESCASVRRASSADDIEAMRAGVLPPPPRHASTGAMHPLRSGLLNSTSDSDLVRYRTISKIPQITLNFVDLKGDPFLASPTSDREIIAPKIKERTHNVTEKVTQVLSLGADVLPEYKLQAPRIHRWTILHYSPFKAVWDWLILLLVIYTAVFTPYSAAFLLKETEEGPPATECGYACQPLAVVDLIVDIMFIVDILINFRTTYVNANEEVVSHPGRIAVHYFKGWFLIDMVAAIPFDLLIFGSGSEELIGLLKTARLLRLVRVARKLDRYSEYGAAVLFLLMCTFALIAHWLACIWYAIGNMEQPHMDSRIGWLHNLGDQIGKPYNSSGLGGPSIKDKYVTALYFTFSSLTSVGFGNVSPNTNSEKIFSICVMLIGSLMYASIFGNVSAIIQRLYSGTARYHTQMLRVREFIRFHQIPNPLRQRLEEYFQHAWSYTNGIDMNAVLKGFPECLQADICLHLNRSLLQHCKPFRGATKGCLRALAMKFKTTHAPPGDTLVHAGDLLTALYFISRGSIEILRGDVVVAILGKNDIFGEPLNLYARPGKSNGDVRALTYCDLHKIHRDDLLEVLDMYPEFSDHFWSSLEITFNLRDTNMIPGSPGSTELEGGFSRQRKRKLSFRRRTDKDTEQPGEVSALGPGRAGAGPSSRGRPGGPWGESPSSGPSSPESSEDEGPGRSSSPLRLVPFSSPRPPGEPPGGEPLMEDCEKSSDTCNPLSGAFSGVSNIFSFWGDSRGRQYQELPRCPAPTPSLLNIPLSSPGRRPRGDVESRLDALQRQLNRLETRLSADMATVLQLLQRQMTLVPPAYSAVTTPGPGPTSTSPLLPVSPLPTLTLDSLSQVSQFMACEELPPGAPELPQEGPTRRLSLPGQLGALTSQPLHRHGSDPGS

SMILES: CNC(=O)Cn1c(=O)[nH]/c(=N\c2ccc(OC(F)F)cc2C)n(Cc2cc(F)c(F)c(F)c2)c1=O [Compound 1, (4E)-2-(4-{[4-(Difluoromethoxy)-2-methylphenyl]imino}-2,6-dioxo-3-(3,4,5-trifluorobenzyl)-1,3,5-triazinan-1-yl)-N-methylacetamide]
- CL (total clearance) [1]: 7.3 mL/min/kg
- Oral F (oral bioavailability) [1]: 111%
- IC50 (SARS-CoV-2 3CL protease): 8600 nM

SMILES: CNC(=O)Cn1c(=O)nc(Nc2cc3sc(C)nc3cc2C)n(Cc2cc(F)c(F)c(F)c2)c1=O [Compound 15]
- IC50 (SARS-CoV-2 3CL protease): 3500 nM

SMILES: CNC(=O)Cn1c(=O)[nH]/c(=N\c2cc3sc(C)nc3cc2C)n(Cc2ccccc2)c1=O [Compound 16]
- IC50 (SARS-CoV-2 3CL protease): 58000 nM

SMILES: CNC(=O)Cn1c(=O)[nH]/c(=N\c2cc3sc(C)nc3cc2C)n(Cc2ccccc2F)c1=O [Compound 17]
- IC50 (SARS-CoV-2 3CL protease): 35000 nM

SMILES: Cn1cnc(Cn2c(=O)[nH]/c(=N\c3cc4cn(C)nc4cc3Cl)n(Cc3cc(F)c(F)cc3F)c2=O)n1 [Compound 3, (6E)-6-[(6-Chloro-2-methyl-2H-indazol-5-yl)imino]-3-[(1-methyl-1H-1,2,4-triazol-3-yl)methyl]-1-(2,4,5-trifluorobenzyl)-1,3,5-triazinane-2,4-dione]
- IC50 (cathepsin L): > 100000 nM
- Inhibitory activity (cathepsin L; at 100 μM): no inhibitory activity
- inhibition at 100 µM (cathepsin L; at 100 μM, read-out: Inhibitory activity): < 50%
- EC50 (SARS-CoV-2 [2]; [13]): 310 nM
- EC50 (SARS-CoV-2 [2]; [14]): 460 nM
- EC50 (SARS-CoV-2 [2]; [15]): 330 nM
- EC50 (SARS-CoV-2 [2]; [16]): 500 nM
- EC50 (SARS-CoV-2 [2]; [17]): 430 nM
- EC50 (SARS-CoV-2 [2]; [18]): 400 nM
- EC50 (SARS-CoV-2 [2]; [19]): 410 nM
- EC50 (SARS-CoV-2 [2]; [20]): 290 nM
- EC50 (SARS-CoV-2 [2]; Severe acute respiratory syndrome coronavirus 2, CPE inhibition assay, VeroE6/TMPRSS2 cells, read-out: VeroE6/TMPRSS2 EC50 (antiviral activity)): 370 nM
- Inhibitory activity (cathepsin D [3]): no inhibitory activity
- clearance (in vivo [4]; iv, 0.1 mg/kg): 0.17 mL/min/kg
- bioavailability (in vivo [4]; po): 64.7%
- CC50 (in vitro): > 100000 nM
- inhibition at 100 µM (cathepsin D [5]): < 50%
- EC50 (HCoV-229E; MRC5, CPE, MRC-5 cells, mean, read-out: EC50 against HCoV-229E): 5500 nM
- simulated plasma concentration over time ([6]; BALB/cAJcl, 16 mg/kg): above the protein-adjusted-EC50
- plasma concentration [6]: increased dose-dependently
- IC50 (cathepsin G): > 100000 nM
- Oral F (oral bioavailability) (Rat PK study): 97%
- Inhibitory activity (thrombin): no inhibitory activity
- lung viral titers ([7]; […], near lower limit of quantification): ~1.80
- effect on intrapulmonary (lung) viral titers ([7]; mouse, in vivo): reduced the intrapulmonary viral titers dose-dependently
- ether-a-go-go-related gene inhibition [8]: no safety concerns
- IC50 (HIV-1 protease): > 100000 nM
- inhibition at 100 µM (HIV-1 protease; at 100 μM): < 50%
- IC50 (caspase-2; caspase 2): > 100000 nM
- Inhibitory activity (caspase-2; caspase 2, at 100 μM): no inhibitory activity
- EC50 (MERS-CoV): 1400 nM
- CC50 (VeroE6/TMPRSS2 cells): > 100000 nM
- clearance (in vivo [9]; iv, 0.1 mg/kg): 0.29 mL/min/kg
- bioavailability (in vivo [9]; po): 106%
- t1/2 (Dog PK study; listed as S-217622): ~30 h
- half-life (Dog PK study; male, beagle, in vivo, iv, 0.1 mg/kg, t1/2, dog): 29.5 h
- EC50 (SARS-CoV-2 [10]): 3.93 µM and 2.09 µg/mL
- IC50 (chymotrypsin): > 100000 nM
- half-life (Monkey PK study; female, cynomolgus monkey, in vivo, iv, 0.1 mg/kg, t1/2, monkey): 10 h
- t1/2 (Monkey PK study; monkey, listed as S-217622): approximately 10 h
- EC90 (HCoV-OC43; Betacoronavirus 1, OC43, MRC5, RT-qPCR, MRC-5 cells, mean, read-out: EC90 against HCoV-OC43): 74 nM
- CL (total clearance) [1]: 1.70 mL/min/kg
- clastogenicity (TK6 cells): no safety concerns
- phototoxicity (BALB/3T3 cells): no safety concerns
- EC50 (SARS-CoV): 210 nM

SMILES: CNC(=O)Cn1c(=O)nc(Nc2cc3sc(C)nc3cc2C)n(Cc2ccc(F)cc2)c1=O [Compound 19]
- IC50 (SARS-CoV-2 3CL protease): 16000 nM

SMILES: CNC(=O)Cn1c(=O)[nH]/c(=N\c2ccc(OC)cc2)n(Cc2cc(F)c(F)c(F)c2)c1=O [Compound 14]
- IC50 (SARS-CoV-2 3CL protease): 2800 nM

SMILES: CCC(CC)COC(=O)[C@H](C)N[P@](=O)(OC[C@H]1O[C@@](C#N)(c2ccc3c(N)ncnn23)[C@H](O)[C@@H]1O)Oc1ccccc1 [Remdesivir, reference compound]
- EC50 (SARS-CoV-2 [2]; [13]): 970 nM
- EC50 (SARS-CoV-2 [2]; [14]): 990 nM
- EC50 (SARS-CoV-2 [2]; [15]): 870 nM
- EC50 (SARS-CoV-2 [2]; [16]): 2100 nM
- EC50 (SARS-CoV-2 [2]; [17]): 1000 nM
- EC50 (SARS-CoV-2 [2]; [18]): 1200 nM
- EC50 (SARS-CoV-2 [2]; [19]): 1600 nM
- EC50 (SARS-CoV-2 [2]; [20]): 1100 nM
- EC50 (SARS-CoV-2 [2]; Severe acute respiratory syndrome coronavirus 2, VeroE6/TMPRSS2, read-out: EC50 on cytopathic effects): 1900 nM
- EC50 (HCoV-229E; MRC5, read-out: EC50 against HCoV-229E): 41 nM
- EC50 (MERS-CoV): 1500 nM
- CC50 (VeroE6/TMPRSS2 cells): > 100000 nM
- EC90 (HCoV-OC43; Betacoronavirus 1, OC43, MRC5, read-out: EC90 against HCoV-OC43): 24 nM
- EC50 (SARS-CoV): 1300 nM

SMILES: CNC(=O)Cn1c(=O)nc(Nc2cc3sc(C)nc3cc2C)n(Cc2cccc(F)c2)c1=O [Compound 18]
- IC50 (SARS-CoV-2 3CL protease): 29000 nM

SMILES: CNC(=O)Cn1c(=O)[nH]/c(=N\c2cc3cn(C)nc3cc2Cl)n(Cc2cc(F)c(F)c(F)c2)c1=O [Compound 2, (4E)-2-{4-[(6-Chloro-2-methyl-2H-indazol-5-yl)imino]-2,6-dioxo-3-(3,4,5-trifluorobenzyl)-1,3,5-triazinan-1-yl)-N-methylacetamide]
- EC50 (SARS-CoV-2 [2]; Severe acute respiratory syndrome coronavirus 2, VeroE6/TMPRSS2, molecular formula strings csv, read-out: VeroE6/TMPRSS2 EC50): 12500 nM
- HLM, percentage remaining after 30 min [11]: 94.8%
- RLM, percentage remaining after 30 min [12]: 94.3%
- CL (total clearance) [1]: 4.9 mL/min/kg
- Oral F (oral bioavailability) [1]: 29.6%
- IC50 (SARS-CoV-2 3CL protease): 96 nM
- improvement in enzymatic inhibitory activity (SARS-CoV-2 3CL protease; relative to hit compound 1): 90 fold

SMILES: CNC(=O)Cn1c(=O)[nH]/c(=N\c2ccc(OC)cc2C)n(Cc2cc(F)c(F)c(F)c2)c1=O [Compound 13]
- IC50 (SARS-CoV-2 3CL protease): 1900 nM
